System: Aorta
Assay: Vasodilatory activity in Wistar rat thoracic aorta rings assessed as inhibition of norepinephrine hydrochloride-induced contraction
Format: functional, tissue-based

Structure (SMILES) | inhibition
Cc1coc2c1C(=O)C(=O)c1c-2ccc2c1C(OC(=O)c1ccccc1O)CCC2(C)C (stereo not given) | Dose-dependent effect
COc1ccc(C(=O)OC2CCC(C)(C)c3ccc4c(c32)C(=O)C(=O)c2c(C)coc2-4)cc1 (stereo not given) | Dose-dependent effect
Cc1coc2c1C(=O)C(=O)c1c-2ccc2c1C(OC(=O)c1ccccc1F)CCC2(C)C (stereo not given) | Dose-dependent effect
COc1cccc(CC(=O)OC2CCC(C)(C)c3ccc4c(c32)C(=O)C(=O)c2c(C)coc2-4)c1 (stereo not given) | Dose-dependent effect

System: Aorta
Assay: Vasodilatory activity in Wistar rat thoracic aorta rings assessed as inhibition of norepinephrine hydrochloride-induced contraction at 1 X 10 '-4 M
Format: functional

Structure (SMILES) | inhibition at 100 µM [%]
Cc1coc2c1C(=O)C(=O)c1c-2ccc2c1C(OC(=O)c1ccc(F)cc1)CCC2(C)C (stereo not given) | -3.3
Cc1coc2c1C(=O)C(=O)c1c-2ccc2c1C(OC(=O)c1ccccc1)CCC2(C)C (stereo not given) | -9.41
COc1ccccc1C(=O)OC1CCC(C)(C)c2ccc3c(c21)C(=O)C(=O)c1c(C)coc1-3 (stereo not given) | 7.58
Cc1coc2c1C(=O)C(=O)c1c-2ccc2c1C(OC(=O)Cc1ccccc1O)CCC2(C)C (stereo not given) | -0.37
Cc1coc2c1C(=O)C(=O)c1c-2ccc2c1C(OC(=O)c1ccccc1O)CCC2(C)C (stereo not given) | 22.4
Cc1coc2c1C(=O)C(=O)c1c-2ccc2c1C(OC(=O)Cc1cccc(F)c1)CCC2(C)C (stereo not given) | -2.78
Cc1coc2c1C(=O)C(=O)c1c-2ccc2c1C(OC(=O)c1ccc(O)cc1)CCC2(C)C (stereo not given) | 9.39
Cc1coc2c1C(=O)C(=O)c1c-2ccc2c1C(OC(=O)Cc1ccc(F)cc1)CCC2(C)C (stereo not given) | -13.3
COc1ccc(C(=O)OC2CCC(C)(C)c3ccc4c(c32)C(=O)C(=O)c2c(C)coc2-4)cc1 (stereo not given) | 23.5
Cc1coc2c1C(=O)C(=O)c1c-2ccc2c1C(OC(=O)Cc1cccc(O)c1)CCC2(C)C (stereo not given) | -4.92
Cc1coc2c1C(=O)C(=O)c1c-2ccc2c1C(OC(=O)c1cccc(O)c1)CCC2(C)C (stereo not given) | 19.1
Cc1coc2c1C(=O)C(=O)c1c-2ccc2c1C(OC(=O)Cc1ccc(O)cc1)CCC2(C)C (stereo not given) | -1.67
Cc1coc2c1C(=O)C(=O)c1c-2ccc2c1C(OC(=O)Cc1ccccc1)CCC2(C)C (stereo not given) | -17.8
COc1cccc(C(=O)OC2CCC(C)(C)c3ccc4c(c32)C(=O)C(=O)c2c(C)coc2-4)c1 (stereo not given) | -0.25
Cc1coc2c1C(=O)C(=O)c1c-2ccc2c1C(OC(=O)c1cccc(F)c1)CCC2(C)C (stereo not given) | -3.59
Cc1coc2c1C(=O)C(=O)c1c-2ccc2c1CCCC2(C)C [TANSHINONE IIA] | 1.86
COc1ccc(CC(=O)OC2CCC(C)(C)c3ccc4c(c32)C(=O)C(=O)c2c(C)coc2-4)cc1 (stereo not given) | 20.2
COc1ccccc1CC(=O)OC1CCC(C)(C)c2ccc3c(c21)C(=O)C(=O)c1c(C)coc1-3 (stereo not given) | 12.8
Cc1coc2c1C(=O)C(=O)c1c-2ccc2c1C(OC(=O)c1ccccc1F)CCC2(C)C (stereo not given) | 21.8
Cc1coc2c1C(=O)C(=O)c1c-2ccc2c1C(OC(=O)Cc1ccccc1F)CCC2(C)C (stereo not given) | 1.92
COc1cccc(CC(=O)OC2CCC(C)(C)c3ccc4c(c32)C(=O)C(=O)c2c(C)coc2-4)c1 (stereo not given) | 29.4
